In brackets after ≈: the same amount, converted by molar mass. Where two headings read alike, the source gives them in different places.
Columns and labels:
HuTu 80 = experiment: MTT cell viability test, HuTu 80; assay type: cell-based, human; conditions: Homo sapiens, HuTu80; incubation time 24 h
Experimental: (§1) Human cell cultures of tumor origin—HeLa (cervical tumor), HuTu 80 (human duodenal adenocarcinoma), ChangLiver (human liver HeLa-like line), and normal cell line WI38, VA 13 subline 2RA is a diploid human cell strain composed of fibroblasts derived from healthy lung tissue provided by The Gamaleya National Center for Epidemiology and Microbiology, as well as the Institute of Cytology of the Russian Academy of Sciences. They were grown in a nutrient medium DMEM (PanEco, Moscow, Russia) and MEM (PanEco, Moscow, Russia), containing fetal bovine serum (10% by volume) (ThermoFisher Scientific, Paisley, UK), Glutamax (2 mM) (Gibco, Scotland, UK), and penicillin-streptomycin (1% by volume) (PanEco, Moscow, Russia). The cultivation was carried out at 37 °C in a humidified CO2 atmosphere (5%).
(§2) Cell viability was determined by the MTT test. Cells were seeded in a 96-well plate in the amount of 1 × 10^4 cells/200 µL of complete nutrient medium and cultured at 37 °C in CO2 (5%). After 24 h of incubation, various concentrations of test compounds in the range of 0.1 to 100 μM were added to the cell cultures, and then the cells were cultured under the same conditions for 24 and 72 h. For each concentration, the experiment was carried out in triplicate.
(§3) All compounds were dissolved in DMSO and then diluted with the medium to the required concentration. […] The DMSO was also added to the control wells in a volume of 1%. After the incubation time, MTT (3-(4,5-dimethylthiazol-2-yl)-2,5-diphenyltetrazolium bromide, 5 mg/mL) was added to each well, and plates were additionally incubated for 2 h (until the characteristic color appeared).
(§4) Using a plate analyzer (Cytation3, BioTech Instruments Inc., Winooski, VT, USA), the optical density was determined at 530 nm.
(§5) The IC50 parameter was calculated using the AAT Bioquest program.
(§6) The selectivity index (SI) is calculated as the ratio between the IC50 for normal cells and the IC50 for cancer cells.

M-HeLa = experiment: MTT cell viability test, M-HeLa; assay type: cell-based, human; conditions: Homo sapiens, M-HeLa; incubation time 24 h
Experimental: as §1, §2, §3, §4, §5, §6

Chang Liver = experiment: MTT cell viability test, Chang liver; assay type: cell-based; conditions: Homo sapiens, incubation time 24 h
Experimental: as §1, §2, §3, §4, §5

[1] = test system: Fusarium oxysporum IBPPM 543; experiment: Mycelial radial growth inhibition; assay type: cell-based; conditions: Fusarium oxysporum; for inhibition at 10 µg/mL / inhibition at 15 µg/mL / inhibition at 30 µg/mL / inhibition at 60 µg/mL: read-out: Inhibition value, I (%)
Excerpt: (§7) Plant pathogenic bacterial strains Micrococcus luteus B-109, Pectobacterium atrosepticum 1043, Pectobacterium carotovorum subsp. carotovorum MI, Pseudomonas fluorescens EL-2.1, and Xanthomonas campestris B-610 and the fungal strain Fusarium oxysporum IBPPM 543 were from the Collection of Rhizosphere Microorganisms, IBPPM RAS (WFCC no. 975, WDCM no. 1021) (CM IBPPM, http://collection.ibppm.ru). The pathogenic fungus Phytophthora cactorum VKM F-985, provided by the All-Russian Collection of Microorganisms (VKM) and deposited at the A.E. Favorsky Irkutsk Institute of Chemistry, SB RAS, was also used as a test organism. Bacteria M. luteus, P. carotovorum subsp. carotovorum, P. atrosepticum, and P. fluorescens were grown in a meat–peptone medium (BP), and X. campestris was grown in the medium with glucose, yeast extract, and calcium carbonate (GYCa). Solid media contained Bacto agar (18 g/L); pH was adjusted to 7.2–7.4. All bacterial cultures were grown at 28 °C. The mycelial cultures of F. oxysporum and P. cactorum were grown on a glucose–peptone–yeast (GPY) nutrient medium at 27 °C. For inoculum preparation, both fungal strains were initially grown on the agar GPY in Petri dishes and then transferred into the seed medium by punching out 5 mm of the agar plate culture with a self-designed cutter.
(§8) For the fungicidal activity analysis, radial growth (colony diameters) of the fungi on a solid medium in the absence and in the presence of the compounds 5a–e and 7a–c solutions at various concentrations were compared. The method consisted of the following: A sterile GPY agar medium (20.0 mL), which was melted and then allowed to cool to approximately 60 °C, was mixed with the precisely measured volumes of the solutions under question and poured into a sterile Petri dish (90 mm i.d.). After the solidification of GPY agar, the media were inoculated by the fungus using 10-day-old cultures of F. oxysporum or P. cactorum. The inoculation was conducted by transferring a 5-mm (i.d.) GPY-agar block covered with mycelium to the center of the Petri dish, followed by incubation in a thermostat at 27 °C. The fungicidal effect was scored by the size of the mycelium colony on a Petri dish compared to the control without fungicidal admixtures to GPY agar. Each treatment was performed in at least four replicates in two independent experiments. The observation period ended when the control Petri dish was filled with mycelium (usually after 12 days). […] The solutions of the compounds were prepared with a concentration of 2 mmol/L (stock solution). For comparison, test compounds were also commonly applied as disinfecting agents, and antibiotics were used as a positive control.

[2] = test system: Phytophthora cactorum VKM F-985; experiment: Mycelial radial growth inhibition; assay type: cell-based; conditions: Phytophthora cactorum; for inhibition at 10 µg/mL / inhibition at 15 µg/mL / inhibition at 30 µg/mL / inhibition at 60 µg/mL: read-out: Inhibition value, I (%)
Excerpt: as §7, §8

[3] = test system: Xanthomonas campestris B-610; experiment: Agar-well diffusion, bactericidal activity; assay type: cell-based
Experimental: Bacteria M. luteus, P. carotovorum subsp. carotovorum, P. atrosepticum, and P. fluorescens were grown in a meat–peptone medium (BP), and X. campestris was grown in the medium with glucose, yeast extract, and calcium carbonate (GYCa). Solid media contained Bacto agar (18 g/L); pH was adjusted to 7.2–7.4. […] For inoculum preparation, both fungal strains were initially grown on the agar GPY in Petri dishes and then transferred into the seed medium by punching out 5 mm of the agar plate culture with a self-designed cutter.
(§9) The antibacterial and antifungal activities of the compounds were explored using the agar-well diffusion method and the technique of mycelial radial growth inhibition. The method of diffusion in agar (measuring the diameter of growth inhibition zones) was used to determine the bactericidal activity. The 6-mm wells were made in agar medium (GYCa for Xanthomonas campestris or BP for other bacteria). Bacterial suspensions were distributed over the agar surface, and the tested compound’s solution (150 μL) was added to each well. The width of growth inhibition zones around the wells was determined after incubation for 36–40 h.

[4] = test system: Pectobacterium carotovorum subsp. carotovorum MI; experiment: Agar-well diffusion, bactericidal activity; assay type: cell-based
Excerpt: as §7, §9

Micrococcus luteus B-109 = experiment: Agar-well diffusion, bactericidal activity; assay type: cell-based
Excerpt: as §7, §9

[5] = test system: Pectobacterium atrosepticum 1043; experiment: Agar-well diffusion, bactericidal activity; assay type: cell-based
Excerpt: as §7, §9

[6] = test system: Pseudomonas fluorescens EL-2.1; experiment: Agar-well diffusion, bactericidal activity; assay type: cell-based
Excerpt: as §7, §9

Cc1ccc2c(c1)C(=O)C(=O)N2Cc1cccc(C(F)(F)F)c1 [Compound 4e, 5-Methyl-1-(3-(trifluoromethyl)benzyl)indoline-2,3-dione]
IC50 (HuTu 80): 53.2 ± 3.9 µM
IC50 (M-HeLa): 94 ± 7.5 µM
IC50 (Chang Liver): > 100 µM
melting point: 155 to 156 °C

O=C1C(=O)N(Cc2ccc(F)cc2Cl)c2ccccc21 [Compound 8a]
IC50 (HuTu 80): 64 ± 4.5 µM
IC50 (M-HeLa): 50 ± 3.7 µM
IC50 (Chang Liver): > 100 µM

O=C1C(=O)N(Cc2ccc(Br)cc2F)c2ccccc21 [Compound 8b]
IC50 (HuTu 80): 59.4 ± 4.2 µM
IC50 (M-HeLa): 40 ± 2.8 µM
IC50 (Chang Liver): 100 ± 8.4 µM

O=C1C(=O)N(Cc2c(F)cccc2F)c2ccccc21 [Compound 8c]
IC50 (HuTu 80): 50.3 ± 3.6 µM
IC50 (M-HeLa): 98.8 ± 6.9 µM
IC50 (Chang Liver): 79 ± 5.5 µM

O=C1C(=O)N(Cc2c(F)c(F)c(F)c(F)c2F)c2ccccc21 [Compound 8d]
IC50 (HuTu 80): 54.1 ± 3.9 µM
IC50 (M-HeLa): > 100 µM
IC50 (Chang Liver): > 100 µM

N#Cc1c[nH]cc1-c1cccc2c1OC(F)(F)O2 [Fludioxonil, fludioxonil, reference compound]
inhibition at 10 µg/mL ([1]; IBPPM543, 72 h): 18%
inhibition at 15 µg/mL ([1]; IBPPM543, 72 h): 21%
inhibition at 30 µg/mL ([1]; IBPPM543, 72 h): 26%
inhibition at 60 µg/mL ([1]; IBPPM543, 72 h): 32%
EC50 ([1]; IBPPM543, 120 h, read-out: EC50, µg/mL at Day 5, F. oxysporum): 83.3 µg/mL (≈ 336 µM)
inhibition at 10 µg/mL ([1]; IBPPM543, 120 h): 23%
inhibition at 15 µg/mL ([1]; IBPPM543, 120 h): 30%
inhibition at 30 µg/mL ([1]; IBPPM543, 120 h): 33%
inhibition at 60 µg/mL ([1]; IBPPM543, 120 h): 35%
inhibition at 10 µg/mL ([1]; IBPPM543, 168 h): 6%
inhibition at 15 µg/mL ([1]; IBPPM543, 168 h): 20%
inhibition at 30 µg/mL ([1]; IBPPM543, 168 h): 23%
inhibition at 60 µg/mL ([1]; IBPPM543, 168 h): 25%
inhibition at 10 µg/mL ([1]; IBPPM543, 216 h): 4%
inhibition at 15 µg/mL ([1]; IBPPM543, 216 h): 5%
inhibition at 30 µg/mL ([1]; IBPPM543, 216 h): 8%
inhibition at 60 µg/mL ([1]; IBPPM543, 216 h): 9%
inhibition at 10 µg/mL ([2]; 72 h): 36%
inhibition at 15 µg/mL ([2]; 72 h): 38%
inhibition at 30 µg/mL ([2]; 72 h): 40%
inhibition at 60 µg/mL ([2]; 72 h): 52%
EC50 ([2]; 120 h, read-out: EC50, µg/mL at Day 5, P. cactorum): 29.5 µg/mL (≈ 119 µM)
inhibition at 10 µg/mL ([2]; 120 h): 38%
inhibition at 15 µg/mL ([2]; 120 h): 46%
inhibition at 30 µg/mL ([2]; 120 h): 51%
inhibition at 60 µg/mL ([2]; 120 h): 57%
inhibition at 10 µg/mL ([2]; 168 h): 35%
inhibition at 15 µg/mL ([2]; 168 h): 42%
inhibition at 30 µg/mL ([2]; 168 h): 46%
inhibition at 60 µg/mL ([2]; 168 h): 49%
inhibition at 10 µg/mL ([2]; 216 h): 9%
inhibition at 15 µg/mL ([2]; 216 h): 17%
inhibition at 30 µg/mL ([2]; 216 h): 23%
inhibition at 60 µg/mL ([2]; 216 h): 29%

CCn1cc(C(=O)O)c(=O)c2cc(F)c(N3CCNCC3)cc21 [Norfloxacin, norfloxacin, reference compound]
zone of inhibition at 500 µg/mL ([3]; Xanthomonas campestris, B610, read-out: width of the inhibition zone (mm), X. campestris): 7 mm
zone of inhibition at 500 µg/mL ([4]; Pectobacterium carotovorum, 500 μg/mL, read-out: width of the inhibition zone (mm), P. carotovorum subsp. carotovorum): 8 mm
zone of inhibition at 500 µg/mL (Micrococcus luteus B-109; Micrococcus luteus, B109, 500 μg/mL, read-out: width of the inhibition zone (mm), M. luteus): 7 mm
zone of inhibition at 500 µg/mL ([5]; Pectobacterium atrosepticum, 1043, 500 μg/mL, read-out: width of the inhibition zone (mm), P. atrosepticum): 7 mm
zone of inhibition at 500 µg/mL ([6]; Pseudomonas fluorescens, EL2.1, 500 μg/mL, read-out: width of the inhibition zone (mm), Ps. fluorescens): 8 mm

[Na+].[O-]Cl [sodium hypochlorite, reference compound]
width of the inhibition zone (mm), X. campestris ([3]; 1000 μg/mL): 4 mm
width of the inhibition zone (mm), P. carotovorum subsp. carotovorum ([4]; 1000 μg/mL): 3 mm
width of the inhibition zone (mm), M. luteus (Micrococcus luteus B-109; 1000 μg/mL): 2.5 mm
width of the inhibition zone (mm), P. atrosepticum ([5]; 1000 μg/mL): 4 mm
width of the inhibition zone (mm), Ps. fluorescens ([6]; 1000 μg/mL): 4 mm

Source: article PMC10607100, “Anticancer and Antiphytopathogenic Activity of Fluorinated Isatins and Their Water-Soluble Hydrazone Derivatives” (International Journal of Molecular Sciences, 2023)
